Reference: paper PMC10028264, “Synergistic antifungal interaction of N-(butylcarbamothioyl) benzamide and amphotericin B against Cryptococcus neoformans” (Frontiers in Microbiology, 2023)
≈ marks a conversion by molar mass, not a printed value.

Molecular target: T1, cryptococcal urease (Cryptococcus neoformans, UniProt O13465)
T1 construct: 100 μL of crude protein extract; endogenous in cells; host or cells: Cryptococcus neoformans ATCC 34872, crude lysate (glass-bead lysis, supernatant)
Assay: Urease activity inhibition test (indophenol method, crude protein extract)
Assay type: biochemical
Conditions: C. neoformans ATCC 34872 crude protein extract; indophenol method
Protocol: Five colonies of C. neoformans were suspended in 100 μL SD broth and inoculated onto SD agar using a Drigalski spreader, and the culture was incubated at 37°C for 48 h. Afterward, all fungal growth was gently scraped and transferred to conical flasks containing 300 mL of SD broth and incubated with shaking (150 rpm) at 37°C for further 48 h. Cells were centrifuged (6,000 × g, 10 min) and washed three times with distilled water. The protein extraction was performed according to [Moller et al. (2016)] with modifications. Briefly, fungal cells were resuspended in 10 mL of chilled lysis buffer consisting of 100 μM Nα-tosyl-L-lysine chloromethyl ketone hydrochloride (TLCK), 1 mM EDTA, 10% glycerol and 0.15 M phosphate-buffered saline (PBS), pH 8.0. […] Then, the cell debris was removed by centrifugation (6,000 × g, 15 min, 4°C), and the protein content of the resulting supernatant was quantified using the […].
The inhibition of urease activity was evaluated by the indophenol method ([Weatherburn, 1967]). […] The reaction mixtures were incubated for further 10 min at 45°C, and the optical density (OD) was measured at 630 nm. Urease inhibition percentage (I%) was calculated according to the equation: I% = 100–(ODBTU–01/ODcontrol) × 100. […]

T1 sequence (O13465 whole entry): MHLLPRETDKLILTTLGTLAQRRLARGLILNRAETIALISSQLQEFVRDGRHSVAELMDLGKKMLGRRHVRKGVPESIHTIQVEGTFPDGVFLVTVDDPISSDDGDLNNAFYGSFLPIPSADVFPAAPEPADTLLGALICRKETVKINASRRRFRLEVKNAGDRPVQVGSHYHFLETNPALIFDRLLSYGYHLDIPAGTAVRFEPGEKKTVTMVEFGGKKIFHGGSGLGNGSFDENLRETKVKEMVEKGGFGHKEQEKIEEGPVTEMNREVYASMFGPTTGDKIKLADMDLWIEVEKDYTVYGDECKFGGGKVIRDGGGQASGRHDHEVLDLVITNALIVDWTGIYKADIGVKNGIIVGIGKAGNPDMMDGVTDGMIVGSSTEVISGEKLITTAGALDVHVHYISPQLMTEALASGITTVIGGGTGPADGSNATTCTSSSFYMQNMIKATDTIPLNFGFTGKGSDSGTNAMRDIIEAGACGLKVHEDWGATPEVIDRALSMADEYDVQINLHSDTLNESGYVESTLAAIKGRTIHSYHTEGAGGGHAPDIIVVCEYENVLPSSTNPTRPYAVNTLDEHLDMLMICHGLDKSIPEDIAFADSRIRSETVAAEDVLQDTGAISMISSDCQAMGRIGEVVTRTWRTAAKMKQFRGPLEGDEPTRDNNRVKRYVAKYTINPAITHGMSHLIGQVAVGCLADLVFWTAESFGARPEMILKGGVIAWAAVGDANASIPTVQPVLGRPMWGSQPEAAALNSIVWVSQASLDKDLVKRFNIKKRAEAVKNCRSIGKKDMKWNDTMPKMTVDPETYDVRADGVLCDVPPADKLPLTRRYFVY

Structure (SMILES): NC(N)=S [thiourea, Thiourea, reference compound]
- IC50 urease activity: 38.6 µg/mL (≈ 507 µM)
